One block for each compound: values may come before it.
How the values were obtained:
[1] = Dynamic vapor sorption (hygroscopicity, water content); assay type: physicochemical; conditions: for water content at 50% relative humidity / water content at 95% relative humidity: dynamic vapor sorption
Text: In certain embodiments, crystalline (3R)-4-{[(1S)-2-methyl-1-(2-methylpropanoyloxyl)propoxy]carbonylamino}-3-(4-chlorophenyl)butanoic acid hemihydrate is hygroscopic. […] In certain embodiments, crystalline (3R)-4-{[(1S)-2-methyl-1-(2-methylpropanoyloxyl)propoxy]carbonylamino}-3-(4-chlorophenyl)butanoic acid hemihydrate comprises from about 2 wt %-about 3 wt % water. In certain embodiments, crystalline (3R)-4-{[(1S)-2-methyl-1-(2-methylpropanoyloxyl)propoxy]carbonylamino}-3-(4-chlorophenyl)butanoic acid hemihydrate contains about 2.15 wt % water at 50% relative humidity as measured by dynamic vapor sorption. In certain embodiments, crystalline (3R)-4-{[(1S)-2-methyl-1-(2-methylpropanoyloxyl)propoxy]carbonylamino}-3-(4-chlorophenyl)butanoic acid hemihydrate contains about 3 wt % water at 95% relative humidity as measured by dynamic vapor sorption.
In certain embodiments, crystalline (3R)-4-{[(1S)-2-methyl-1-(2-methylpropanoyloxyl)propoxy]carbonylamino}-3-(4-chlorophenyl)butanoic acid anhydrate contains less than about 0.05 wt % water at 50% relative humidity as measured by dynamic vapor sorption. In certain embodiments, crystalline (3R)-4-{[(1S)-2-methyl-1-(2-methylpropanoyloxyl)propoxy]carbonylamino}-3-(4-chlorophenyl)butanoic acid anhydrate contains less than about 0.1 wt % water at 95% relative humidity as measured by dynamic vapor sorption.

[2] = Thermogravimetric analysis (TG-FTIR); assay type: physicochemical; conditions: for temperature at which thermal decomposition began slowly: TG-FTIR, 10 K/min, increased strongly above 190° C.
Description: Thermogravimetric measurements were carried out with a Netzsch Thermo-Microbalance TG 209 coupled to a Bruker FTIR Spectrometer Vector 22. The sample was contained in sample pans with a pinhole, under a N2 atmosphere. The heating rate was set at 10 K/min. […]

[3] = dosed either orally or directly into the colon of a mammal; cited from earlier work
[4] = Solubility in crystallization solvents; assay type: physicochemical
Text: As used herein, the terms solution and suspension are used interchangeably and are meant to include embodiments in which a compound is in a solvent or solvent mixture regardless of solubility. […] In general, solvent combinations in which a compound is soluble within a first temperature range, and poorly soluble within a second temperature range, can be used in the crystallization methods disclosed herein. Mixtures of a “good” solvent and an “anti-solvent” can also be used with temperature dependent solubilization, i.e., dissolving at elevated temperature and crystallizing at room temperature. Examples of suitable “good” solvents, i.e., solvents in which (3R)-4-{[(1S)-2-methyl-1-(2-methylpropanoyloxyl)propoxy]carbonylamino}-3-(4-chlorophenyl)butanoic acid is soluble, include methanol, ethanol, isopropanol, acetone, methyl isobutyl ketone, tetrahydrofuran, 2-methyl tetrahydrofuran, 1,4-dioxane, 1,2-ethandiol, 1,2-propanediol, 2-methoxyethanol, 2-ethoxyethanol, and a mixture of any of the foregoing.

reflux episodes = conditions: clinical trials (Castell et al.); cited from earlier work
[5] = system: emesis induced by nicotine and motion; conditions: animal models (Chan et al.); cited from earlier work
[6] = system: allodynia and hyperalgesia; conditions: doses lower than those required to produce sedation and impairment of motor activity; cited from earlier work
musculoskeletal pain = conditions: in vivo; cited from earlier work
neuropathic pain = conditions: intrathecal; spinal-cord injury and multiple sclerosis, painful extremity paresthesias, sympathetically maintained pain; cited from earlier work
[7] = system: retching and vomiting induced by morphine; conditions: Suzuki et al.; cited from earlier work
TLESRs = conditions: humans; cited from earlier work
substance addiction = conditions: clinical trials: cocaine addiction, methamphetamine dependence, opioid dependence, alcohol craving and intake, nicotine use, drug addiction generally; cited from earlier work

- hygroscopicity [1]: not hygroscopic
- water content at 50% relative humidity [1]: less than 0.05 wt %
- water content at 95% relative humidity [1]: less than 0.1 wt %
- temperature at which thermal decomposition began slowly [2]: about 170 °C
- weight loss up to 180° C. ([2]; scan rate 10 K/min, N2 atmosphere): very little weight loss
Compound: CC(C)C(=O)O[C@@H](OC(=O)NC[C@H](CC(=O)O)c1ccc(Cl)cc1)C(C)C [(3R)-4-{[(1S)-2-methyl-1-(2-methylpropanoyloxyl)propoxy]carbonylamino}-3-(4-chlorophenyl)butanoic acid anhydrate]

- hygroscopicity [1]: hygroscopic
- water content at 50% relative humidity [1]: about 2.15 wt %
- water content at 95% relative humidity [1]: about 3 wt %
- hygroscopicity above about 60% relative humidity ([1]; above about 60% relative humidity): slightly hygroscopic
- temperature at which thermal decomposition began slowly [2]: about 170 °C
- weight loss up to 170° C. ([2]; scan rate 10 K/min, N2 atmosphere, loss predominantly between 80° C. and 130° C., attributable to water): about 2.1%
Compound: (3R)-4-{[(1S)-2-methyl-1-(2-methylpropanoyloxyl)propoxy]carbonylamino}-3-(4-chlorophenyl)butanoic acid hemihydrate

- solubility in "good" solvents ([4]; methanol, ethanol, isopropanol, acetone, methyl isobutyl ketone, tetrahydrofuran, 2-methyl tetrahydrofuran, 1,4-dioxane, 1,2-ethandiol, 1,2-propanediol, 2-methoxyethanol, 2-ethoxyethanol): soluble
- solubility in "anti-solvents" ([4]; water, diethyl ether, diisopropyl ether, methyl t-butyl ether, toluene, chlorobenzene, alkanes, cyclohexane, methylcyclohexane): poor solubility
Compound: CC(C)C(=O)O[C@@H](OC(=O)NC[C@H](CC(=O)O)c1ccc(Cl)cc1)C(C)C [Compound 1, (3R)-4-{[(1S)-2-methyl-1-(2-methylpropanoyloxyl)propoxy]carbonylamino}-3-(4-chlorophenyl)butanoic acid]
- bioavailability as R-baclofen [3]: high bioavailability
- effect on reflux episodes (reflux episodes): reduce reflux episodes

The remaining lines, values behind:

Compound: NCC(CC(=O)O)c1ccc(Cl)cc1 (racemic) [baclofen, (±)-4-amino-3-(4-chlorophenyl)butanoic acid]
- effect on emesis induced by nicotine and motion [5]: antagonize emesis
- effect on allodynia and hyperalgesia [6]: inhibits allodynia and hyperalgesia
- efficacy in treating migraine, tension-type headaches, low-back pain and radiculopathy (musculoskeletal pain): effective
- efficacy in treating neuropathic pain (neuropathic pain): effective
- effect on retching and vomiting induced by morphine [7]: suppress the retching and vomiting

Compound: NC[C@H](CC(=O)O)c1ccc(Cl)cc1 [(R)-baclofen, (R)-4-amino-3-(4-chlorophenyl)butanoic acid]
- effect on TLESRs (TLESRs): reduce TLESRs
- efficacy in treating addiction (substance addiction): effective

From patent US9265748B2, “Anhydrous and hemihydrate crystalline forms of an (R)-baclofen prodrug, methods of synthesis and methods of use” (XenoPort, Inc., priority 2011, dated 2016)
